Data published in patent US20240108595A1, “COMPOSITIONS AND METHODS FOR REVERSING AGE-ASSOCIATED DENDRITIC SPINE LOSS” (UNIVERSITY OF PITTSBURGH - OF THE COMMONWEALTH SYSTEM OF …, priority 2022, published 2024).

Columns and labels:
[1] = system: mouse cerebral cortex proteome; test: Signed Jaccard Index: overlap of amlexanox-induced protein perturbations in mice with effects of proteins on dendritic spines in humans; format: in vivo; settings: amlexanox/control log2 protein abundances in mouse cerebral cortex vs effects of each protein on density of large dendritic spines in human cohort
Procedure: then the net effect of amlexanox treatment was evaluated on proteins which, in our human data, were associated with age related dendritic spine density reductions. The Signed Jaccard Index (SJI) was calculated to estimate the net overlap of amlexanox-induced protein perturbations in mice with the effects of proteins on dendritic spines in humans. The relative log2-transformed abundances for each protein in amlexanox/control groups were compared with the effects of each protein on the density of large dendritic spines extracted from the mediation analysis from our human cohort (described in Example 1) as follows:
An SJI of 0.013 compares favorably to the mean SJI reported for all drug-disease indication pairs (absolute value=0.004), indicating it is compatible with therapeutic activity. However, the SJI of 0.013 observed was lower in magnitude than the mean SJI reported for drug-disease pairs indicated specifically for CNS disorders (absolute value=0.033).

[2] = mouse, in vivo, ip, 100 mg/kg
Procedure: Drug administration and animal studies. […] A modified tolerability score was used to estimate drug tolerability. […] Male and female 15-month-old WT mice were randomly allocated to receive either 25 mg/kg amlexanox (n=9) or equivalent volume vehicle (n=10) for 5 days. Treatment groups were balanced for sex. On day 5, mice were sacrificed, perfused with normal saline, and the right cerebral cortex was isolated and immediately frozen on dry ice for proteomics.

[3] = system: Fibroblast Growth Factor Receptor 2 (FGFR2); test: Cerebral cortex proteomics (LC-MS) after amlexanox treatment of mice; format: in vivo, mouse; settings: 15-month-old WT mice, 25 mg/kg amlexanox for 5 days, right cerebral cortex; unadjusted p value of log2 fold change=0.0012
Procedure: Drug administration and animal studies. […] Treatment groups were balanced for sex.
Sample Preparation. Tissue homogenate was obtained using a Bead Mill Fast Prep-24 (MP Biomedicals). Tissue was transferred into a Lysing Matrix D tube with 750 μl of homogenization solution (5% SDS with MS-SAFE Protease and Phosphatase Inhibitor) and homogenized at 6 m/s for 40 s. Homogenate was centrifuged at 13.2×g for 10 min, the supernatant was transferred to a microcentrifuge tube and total protein was quantified with BCA.
10 μg of protein from each subject was digested with trypsin at a ratio of 1:20 using S-trap micro columns (Protifi) and desalted using Pierce Peptide Desalting Spin Columns (ThermoFisher Scientific). […]
Peptide Data Analysis. Raw data files were analyzed with Proteome Discoverer (ThermoFisher Scientific) and searched against the mouse SwissProt database using Sequest HT (missed cleavages=2; minimum peptide length=6; precursor mass tolerance=10 ppm; dynamic modifications: Oxidation/+15.995 Da, Acetyl/+42.011 Da, Met-loss/−131.040 Da, Met-loss+Acetyl/[…]; static modifications: Carbamidomethyl/+57.021 Da). […]
Statistical Analysis. […] Proteins with a combined Q-value=0.01 or greater, not quantified in 100% of samples or with CV>0.3 in pooled controls were filtered out. […]
2860 proteins were quantified in all mice. […] Other Fibroblast Growth Factor Receptors were not quantified in our assay.

CC(C)c1ccc2oc3nc(N)c(C(=O)O)cc3c(=O)c2c1 [amlexanox, Amlexanox]
Signed Jaccard Index (SJI) [1]: 0.013
modified tolerability score [2]: elevated tolerability scores
relative abundance of FGFR2 (amlexanox/control) [3]: 0.69
